Values quoted from earlier work, collected in PubChem BioAssay AID1259409 (Chemical Carcinogenesis Research Information System (CCRIS), 2018).

System: rodent chemically induced tumor inhibition, incidence and multiplicity
Assay: CCRIS tumor inhibitor studies
Settings: Species: MOUSE

**Q.** Which results are given for `O=c1c(O)c(-c2ccc(O)c(O)c2)oc2cc(O)cc(O)c12`?
**A.** tumour outcome (control, treated, inhibition, significance) (Carcinogen: 7,12-DIMETHYLBENZ[A]ANTHRACENE, 57-97-6, Dose [Inhibitor]: 30 UMOL IN 100 µL ACETONE/DIMETHYL SULFOXIDE (4/1, V/V) 2/WK 40 MINUTES BEFORE AND CONCURRENTLY WITH EACH PROMOTER TREAT, Route [Inhibitor]: DERMAL, Strain/Sex: ICR/FEMALE, Target Tissue: Type of Lesion: SKIN: PAPILLOMA, Dose [Carcinogen]: 100 UG IN 100 µL ACETONE ONCE, Promoter: TELEOCIDIN, 78474-55-2): 80%, 30%, 63%, not calculated; tumour outcome (control, treated, inhibition, significance) (Carcinogen: 7,12-DIMETHYLBENZ[A]ANTHRACENE, 57-97-6, Dose [Inhibitor]: 100 UG IN 0.2 ML ACETONE ONCE 5 MIN BEFORE CARCINOGEN TREATMENT (STUDY DURATION: 31 WK), Route [Inhibitor]: DERMAL, Strain/Sex: CD-1/FEMALE, Target Tissue: Type of Lesion: SKIN: PAPILLOMA, Dose [Carcinogen]: 10 NMOL IN 0.2 ML ACETONE ONCE, Promoter: 12-O-TETRADECANOYLPHORBOL-13-ACETATE, 16561-29-8): 87%, 70%, 20%, not calculated; tumour outcome (control, treated, inhibition, significance) (Carcinogen: (+/-)-7BETA,8ALPHA-DIHYDROXY-9ALPHA,10ALPHA-EPOXY-7,8,9,10- TETRAHYDROBENZO[A]PYRENE, 58917-67-2, Dose [Inhibitor]: 3000 NMOL IN 0.2 ML ACETONE 1/D FOR 7 D (STUDY DURATION: 18 WK), Route [Inhibitor]: DERMAL, Strain/Sex: SENCAR/FEMALE, Target Tissue: Type of Lesion: SKIN: TUMOR, Dose [Carcinogen]: 200 NMOL IN 0.2 ML ACETONE ONCE 30 MIN POST LAST CARCINOGEN DOSE, Promoter: 12-O-TETRADECANOYLPHORBOL-13-ACETATE, 16561-29-8): 75%, 65%, 13%, not significant; tumour outcome (control, treated, inhibition, significance) (Carcinogen: (+/-)-7BETA,8ALPHA-DIHYDROXY-9ALPHA,10ALPHA-EPOXY-7,8,9,10-TETRAHYDROBENZO[A]PYR ENE, 58917-67-2, Dose [Inhibitor]: 0, 1400 NMOL (TOTAL DOSE) APPLIED 10 MIN PRIOR TO CARCINOGEN DOSE INJECTED AS 1/7, 2/7, AND 4/7 OF THE TOTAL ON DAYS 1,, Route [Inhibitor]: INTRAPERITONEAL, Strain/Sex: ICR/MALE,FEMALE, Target Tissue: Type of Lesion: LUNG: TUMOR, Dose [Carcinogen]: 30 NMOL (TOTAL DOSE) INJECTED IN DOSES OF 1/7, 2/7, AND 4/7 ON DAYS 1, 8, AND 15 OF LIFE, RESPECTIVELY, Promoter: NONE USED): 93%, 81%, 13%, not significant; tumour outcome (control, treated, inhibition, significance) (Carcinogen: (+/-)-7BETA,8ALPHA-DIHYDROXY-9ALPHA,10ALPHA-EPOXY-7,8,9,10-TETRAHYDROBENZO[A]PYR ENE, 58917-67-2, Dose [Inhibitor]: 0, 2500 NMOL IN 200 µL ACETONE:DMSO (90:10) ONCE APPLIED 5 MIN PRIOR TO CARCINOGEN DOSE (STUDY DURATION: 21 WK), Route [Inhibitor]: DERMAL, Strain/Sex: CD-1/FEMALE, Target Tissue: Type of Lesion: SKIN: TUMOR, Dose [Carcinogen]: 200 NMOL IN ACETONE:DMSO (90:10) ONCE, Promoter: 12-O-TETRADECANOYLPHORBOL-13-ACETATE, 16561-29-8): 59%, 69%, -17%, not significant; tumour outcome (control, treated, inhibition, significance) (Carcinogen: AZOXYMETHANE, 25843-45-2, Dose [Inhibitor]: 0, 0.1% IN DIET FOR DURATION OF STUDY (STUDY DURATION: 48 WK), Route [Inhibitor]: ORAL, Strain/Sex: CF-1/FEMALE, Target Tissue: Type of Lesion: COLON: TUMOR, Dose [Carcinogen]: 10 MG/KG BW 3 TIMES, Promoter: NONE USED): 8/32 (25%), 5/32 (16%), 36%, not significant; tumour outcome (control, treated, inhibition, significance) (Carcinogen: AZOXYMETHANE, 25843-45-2, Dose [Inhibitor]: 0, 0.5% IN DIET FOR DURATION OF STUDY (STUDY DURATION: 48 WK), Route [Inhibitor]: ORAL, Strain/Sex: CF-1/FEMALE, Target Tissue: Type of Lesion: COLON: TUMOR, Dose [Carcinogen]: 10 MG/KG BW 3 TIMES, Promoter: NONE USED): 8/32 (25%), 7/35 (20%), 20%, not significant; tumour outcome (control, treated, inhibition, significance) (Carcinogen: AZOXYMETHANE, 25843-45-2, Dose [Inhibitor]: 0, 2% IN DIET FOR DURATION OF STUDY (STUDY DURATION: 48 WK), Route [Inhibitor]: ORAL, Strain/Sex: CF-1/FEMALE, Target Tissue: Type of Lesion: COLON: TUMOR, Dose [Carcinogen]: 10 MG/KG BW 3 TIMES, Promoter: NONE USED): 8/32 (25%), 2/34 (6%), 76%, p=0.003; tumour outcome (control, treated, inhibition, significance) (Carcinogen: BENZO[A]PYRENE, 50-32-8, Dose [Inhibitor]: 0, 1400 NMOL (TOTAL DOSE) APPLIED 10 MIN PRIOR TO CARCINOGEN DOSE INJECTED AS 1/7, 2/7, AND 4/7 OF THE TOTAL ON DAYS 1,, Route [Inhibitor]: INTRAPERITONEAL, Strain/Sex: ICR/MALE,FEMALE, Target Tissue: Type of Lesion: LUNG: TUMOR, Dose [Carcinogen]: 450 NMOL (TOTAL DOSE) INJECTED IN DOSES OF 1/7, 2/7, AND 4/7 ON DAYS 1, 8, AND 15 OF LIFE, RESPECTIVELY, Promoter: NONE USED): 73%, 68%, 7%, not significant; tumour outcome (control, treated, inhibition, significance) (Carcinogen: BENZO[A]PYRENE, 50-32-8, Dose [Inhibitor]: 0, 2500 NMOL IN 200 µL ACETONE:DMSO (90:10) ONCE APPLIED 5 MIN PRIOR TO CARCINOGEN DOSE (STUDY DURATION: 21 WK), Route [Inhibitor]: DERMAL, Strain/Sex: CD-1/FEMALE, Target Tissue: Type of Lesion: SKIN: TUMOR, Dose [Carcinogen]: 50 NMOL IN ACETONE:DMSO (90:10) ONCE, Promoter: 12-O-TETRADECANOYLPHORBOL-13-ACETATE, 16561-29-8): 50%, 45%, 10%, not significant; tumour outcome (control, treated, inhibition, significance) (Carcinogen: BENZO[A]PYRENE, 50-32-8, Dose [Inhibitor]: 0, 12500 NMOL IN 200 µL ACETONE:DMSO (90:10) ONCE APPLIED 5 MIN PRIOR TO CARCINOGEN DOSE (STUDY DURATION: 21 WK), Route [Inhibitor]: DERMAL, Strain/Sex: CD-1/FEMALE, Target Tissue: Type of Lesion: SKIN: TUMOR, Dose [Carcinogen]: 50 NMOL IN ACETONE:DMSO (90:10) ONCE, Promoter: 12-O-TETRADECANOYLPHORBOL-13-ACETATE, 16561-29-8): 50%, 55%, -10%, not significant; tumour outcome (control, treated, inhibition, significance) (Carcinogen: BENZO[A]PYRENE, 50-32-8, Dose [Inhibitor]: 25 MG IN 0.1 ML DMSO 3/WK ADMINISTERED SIMULTANEOUSLY WITH CARCINOGEN FOR DURATION OF STUDY (STUDY DURATION: 368 D), Route [Inhibitor]: DERMAL, Strain/Sex: ICR/FEMALE, Target Tissue: Type of Lesion: SKIN: SQUAMOUS CARCINOMA, Dose [Carcinogen]: 5 UG IN 0.1 ML DMSO THAT ALSO CONTAINED AGENT 3/WK FOR DURATION OF STUDY, Promoter: NONE USED): 6/50 (12%), 0/50 (0%), 100%, not calculated
